# In US12350259B2, “Methods of treating migraine” (Allergan Pharmaceuticals International Limited, priority 2021, dated 2025):
# Read-outs that look alike come from different tables or passages of the source.
# What was measured:
# CYP2C19 = CYP2C19 (Homo sapiens, UniProt P33261); assay: In vitro CYP inhibition; format: in vitro ADME; settings: clinically relevant concentrations
# CYP3A4 = CYP3A4 (Homo sapiens, UniProt P08684); assay: In vitro CYP inhibition; format: in vitro ADME; settings: clinically relevant concentrations
# [1] = Plasma protein binding in human plasma; format: in vitro ADME; settings: human plasma
# plasma protein = assay: Plasma protein binding in human plasma; format: in vitro ADME; settings: range of 0.1 to 10 μM
# [2] = Atogepant-esomeprazole interaction study: safety; format: in vivo, human; settings: atogepant 60 mg alone or with esomeprazole magnesium 40 mg
# Method: A phase 1, open-label, 2-intervention, single-sequence, nonrandomized, crossover, drug-drug interaction study was conducted to evaluate the effects of multiple-dose esomeprazole magnesium 40 mg on pharmacokinetics (PK) and safety of co-administered single-dose atogepant 60 mg in healthy adults.
# [3] = Food effect study (high-fat meal), atogepant IR tablet: plasma PK; format: in vivo, human; settings: for AUC(0-inf) / AUC(0-t) / Cmax / Tmax / Vd/F: both sexes, human, plasma, oral, 60 mg; for Vd/F: read-out: Vz/F
# Method: A single-center, randomized, open-label, single-dose, 2-period cross-over study was conducted to evaluate the effect of a high-fat meal on the systemic exposure of atogepant following single-dose administration of an immediate release (IR) tablet in healthy adult participants. Secondary objectives were to evaluate the secondary PK parameters of atogepant following single-dose administration of an IR tablet formulation of atogepant in healthy participants under fasted and fed conditions; and to evaluate the safety and tolerability profiles of single-dose atogepant in healthy adult participants under fed and fasted conditions. […] Plasma samples were collected pre-dose and at predetermined time intervals up to 48 hours after dosing. Atogepant plasma concentrations were determined using a validated LC-MS/MS assay and the pharmacokinetic (PK) parameters were calculated using WinNonlin. A linear mixed-effects model with sequence, study intervention, and period as fixed effects, and participant nested within sequence as a random effect was used to compare the natural logarithm transformed values of atogepant PK parameters AUC0-t, AUC0-inf, and Cmax. Safety was monitored via ECGs, vital signs, clinical labs, and adverse events. […] Screening occurred within 21 days before dosing (Days −21 to −1). The study intervention period was scheduled for a total of 11 days (Days −1 to 10), and the follow-up visit occurred with serum chemistry on day 38 (±3), (30 [±3] days after the last dose on Day 8). PK blood samples for analysis of plasma atogepant concentrations were collected starting on Days 1 (period 1) and 8 (period 2); at 0 hour (predose) and 0.5, 1, 1.5, 2, 3, 4, 6, 8, 12, 16, 24, 36, and 48 hours postdose. • Linear mixed effects model with natural logarithm-transformed values of AUC0-t, AUC0-inf, and Cmax, as the dependent variable and terms for study intervention, sequence, and period as fixed independent variables and participant nested in sequence as a random effect.
# [4] = Study Intervention A: 1 × 60 mg IR tablet, fed
# [5] = Study Intervention B: 1 × 60 mg IR tablet, fasted
# Chain of CYP2C19 (P33261 whole entry): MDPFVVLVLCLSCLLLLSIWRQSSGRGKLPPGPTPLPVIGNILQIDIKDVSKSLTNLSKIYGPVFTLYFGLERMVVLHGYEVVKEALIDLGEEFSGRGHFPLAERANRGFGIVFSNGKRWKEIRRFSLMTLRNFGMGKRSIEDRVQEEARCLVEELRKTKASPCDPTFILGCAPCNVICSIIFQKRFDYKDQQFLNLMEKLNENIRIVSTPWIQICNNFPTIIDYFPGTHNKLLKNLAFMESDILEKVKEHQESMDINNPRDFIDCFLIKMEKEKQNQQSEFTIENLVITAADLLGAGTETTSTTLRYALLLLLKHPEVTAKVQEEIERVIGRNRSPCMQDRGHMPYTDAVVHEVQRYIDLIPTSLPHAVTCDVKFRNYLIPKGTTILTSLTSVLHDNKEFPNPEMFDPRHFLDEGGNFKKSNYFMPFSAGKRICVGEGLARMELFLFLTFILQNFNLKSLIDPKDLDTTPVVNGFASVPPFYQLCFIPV
# Chain of CYP3A4 (P08684 whole entry): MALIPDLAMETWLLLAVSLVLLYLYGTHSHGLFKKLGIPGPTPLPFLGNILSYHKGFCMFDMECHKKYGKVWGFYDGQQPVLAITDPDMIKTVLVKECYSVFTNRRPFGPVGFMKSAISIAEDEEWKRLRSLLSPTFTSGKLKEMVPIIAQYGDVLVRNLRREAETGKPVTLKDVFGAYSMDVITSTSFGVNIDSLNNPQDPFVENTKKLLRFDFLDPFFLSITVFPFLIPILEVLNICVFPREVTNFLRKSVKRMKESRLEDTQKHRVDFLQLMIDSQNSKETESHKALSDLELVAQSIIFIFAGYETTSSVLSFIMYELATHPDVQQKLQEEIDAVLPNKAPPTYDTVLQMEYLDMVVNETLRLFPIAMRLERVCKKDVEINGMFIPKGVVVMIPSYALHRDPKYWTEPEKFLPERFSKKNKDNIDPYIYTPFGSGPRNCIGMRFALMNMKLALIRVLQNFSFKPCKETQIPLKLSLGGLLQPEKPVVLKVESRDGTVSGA
compound,measurement,setting,value
"C[C@@H]1[C@H](c2c(F)ccc(F)c2F)C[C@H](NC(=O)c2cnc3c(c2)C[C@@]2(C3)C(=O)Nc3ncccc32)C(=O)N1CC(F)(F)F [atogepant, (3′S)-N-[(3S,5S,6R)-6-methyl-2-oxo-1-(2,2,2-trifluoroethyl)-5-(2,3,6-trifluorophenyl)piperidin-3-yl]-2′-oxo-1′,2′,5,7-tetrahydrospiro[cyclopenta[b]pyridine-6,3′-pyrrolo[2,3-b]pyridine]-3-carboxamide]",inhibition of CYP2C19,CYP2C19,not an inhibitor
same,inhibition of CYP3A4,CYP3A4,not an inhibitor
same,fraction unbound,[1],~0.047
same,concentration dependence of plasma protein binding,plasma protein,not concentration-dependent
same,safety and tolerability,[2],safe and tolerated
same,CL/F,[3]; [4],26.10 L/h
same,Tlag (median),[3]; [4],0 h
same,tt/2,[3]; [4],9.41 h
same,λz,[3]; [4],0.0840 h⁻¹
same,CL/F,[3]; [5],21.03 L/h
same,Tlag (median),[3]; [5],0 h
same,tt/2,[3]; [5],9.71 h
same,λz,[3]; [5],0.0799 h⁻¹
same,AUC(0-inf),"[3]; Fasted (Ref), read-out: AUC0-inf GLSM",3160 ng·h/mL
same,AUC(0-t),"[3]; Fasted (Ref), read-out: AUC0-t GLSM",3130 ng·h/mL
same,Cmax,"[3]; Fasted (Ref), read-out: Cmax GLSM",677 ng/mL
same,Tmax,"[3]; Fasted (ref), read-out: Tmax Median",2.01 h
same,AUC(0-inf),"[3]; Fed (Test), read-out: AUC0-inf GLSM",2610 ng·h/mL
same,AUC(0-t),"[3]; Fed (Test), read-out: AUC0-t GLSM",2560 ng·h/mL
same,Cmax,"[3]; Fed (Test), read-out: Cmax GLSM",527 ng/mL
same,Tmax,"[3]; Fed (Test), read-out: Tmax Median",2.01 h
same,AUC(0-inf),"[3]; Study Intervention A: 1 × 60 mg IR tablet, fed, read-out: AUC0-inf",3200 ng·h/mL
same,AUC(0-t),"[3]; Study Intervention A: 1 × 60 mg IR tablet, fed, read-out: AUC0-t",3090 ng·h/mL
same,Cmax,"[3]; Study Intervention A: 1 × 60 mg IR tablet, fed, read-out: Cmax",594 ng/mL
same,Tmax,"[3]; Study Intervention A: 1 × 60 mg IR tablet, fed, read-out: Tmax (median)",2.01 h
same,Vd/F,[3]; [4],368 L
same,AUC(0-inf),"[3]; Study Intervention B: 1 × 60 mg IR tablet, fasted, read-out: AUC0-inf",3490 ng·h/mL
same,AUC(0-t),"[3]; Study Intervention B: 1 × 60 mg IR tablet, fasted, read-out: AUC0-t",3460 ng·h/mL
same,Cmax,"[3]; Study Intervention B: 1 × 60 mg IR tablet, fasted, read-out: Cmax",732 ng/mL
same,Tmax,"[3]; Study Intervention B: 1 × 60 mg IR tablet, fasted, read-out: Tmax (median)",2.01 h
same,Vd/F,[3]; [5],299 L
same,Tmax,"[3]; fed vs fasted, read-out: Tmax Median of Paired Differences (Test Minus Reference)",0.5 h
same,AUC0-inf Ratio of GLSMs Test/Ref,[3]; fed vs fasted,82.53%
same,AUC0-t Ratio of GLSMs Test/Ref,[3]; fed vs fasted,81.70%
same,Cmax Ratio of GLSMs Test/Ref,[3]; fed vs fasted,77.90%
same,effect on median time to maximum atogepant plasma concentration,[3]; high-fat meal,no effect
same,reduction of AUC,[3]; high-fat meal (fed) vs fasted,approximately 18%
